Data on one compound can be found in patent publication US20070036843A1, “Non-ionic non-aqueous vehicles for topical and oral administration of carrier-complexed active agents” (Collegium Pharmaceutical, Inc., priority 2005, published 2007).

This data set can be described thus: Release of albuterol from resinate in various vehicles (membrane-bottomed insert over wells of aqueous solution, simulating topical application to skin). Format: physicochemical. Conditions: room temperature, sampled 0.5, 1, 2 and 4 hours. The procedure: Albuterol was detected by HPLC on a Waters “Resolve” 5 micron spherical C18 resin column, with a mobile phase of 70% buffer and 30% methanol. Buffer was 4.4 g 1-heptane sulfonic acid in 100 g DI water, adjusted to pH 3.2±0.1 with glacial acetic acid. Albuterol extraction solvent was 10% v/v 0.5 M Na Acetate in ethanol. A stock solution of 0.5 mg albuterol/ml extraction buffer was diluted with 25 volumes of “diluent” (30:70 methanol:DI water, v:v) at the time of use. Samples were extracted to determine albuterol content by transferring 200 mg albuterol resin to a 250 ml flask, using extraction solvent; bringing the volume to about 220 ml of extraction solvent; shaking overnight at room temperature; adding extraction solvent to 250 ml; filtering an aliquot; and diluting filtered solution with 24 volumes of diluent. This solution was analyzed by HPLC, and the amount was determined by comparison with a chromatogram of the standard.
A system was developed to simulate the effects of topical application of a resin-bound drug in a vehicle to skin. […]
The experimental design allowed the pores of the membrane to fill with the aqueous solution. […] Wells were sampled at various times and the fluid was analyzed for albuterol. […]
7.5 g phosphate buffer (pH 6.8; 0.05 M) was added to each well. […] The inserts were removed, and the fluid in the wells (12 in all) was analyzed for albuterol by HPLC. […]

As to `CC(C)(C)NCC(O)c1ccc(O)c(CO)c1` (centres unmarked) [albuterol, Albuterol], the Release of albuterol result (albuterol resinate directly in ionic aqueous solution (phosphate buffer pH 6.8, 0.05 M), no vehicle, compared with NINA vehicles) is “fastest” and the Release of albuterol entry (albuterol resinate in hydrophobic castor oil/colloidal silica (2.5%) vehicle without surfactant, phosphate buffer pH 6.8 in well) is reported as “not detectable”.
